In PMC7150891, “Mertansine Inhibits mRNA Expression and Enzyme Activities of Cytochrome P450s and Uridine 5′-Diphospho-Glucuronosyltransferases in Human Hepatocytes and Liver Microsomes” (Pharmaceutics, 2020):
Like-named read-outs stand apart in the source and are kept apart here. Marks after values point to notes of the source that are not given here. Where a SMILES comes first, the peptide text is derived from it. [ ]: non-standard residue; d: D form. The star is where a group is joined. Dolaproine = CO[C@@H]([C@@H]1CCCN1)[C@@H](C)C(=O)O; Dil = CC[C@H](C)[C@H](NC)[C@@H](CC(=O)O)OC; X1 = C[C@@H](N*)[C@@H](O)c1ccccc1; NMeV = CN[C@H](C(=O)O)C(C)C

Experiments:
CYP2B6 mRNA = CYP2B6 mRNA level in human hepatocytes after 48 h treatment (RT-PCR); format: cell-based; conditions: 48 h, 10 nM
Description: (§1) 12.5 (Systat Software, Inc.; San Jose, CA, USA). […] 1.1 (Systat Software, Inc.).

CYP2B6 = experiment: CYP2B6-catalyzed bupropion hydroxylase activity in human hepatocytes after 48 h treatment; conditions: human, 48 h, 10 nM
Description: (§2) Samples were incubated for 48 h at 37 °C in 5% CO2, and the medium was exchanged with 250 μL of fresh medium containing drugs or the vehicle every 24 h.
(§3) The effects of mertansine on CYP1A2, CYP2B6, and CYP3A4 activities were evaluated. […] Mixtures were vortexed for 2 min and then centrifuged at 13,000 g for 4 min at 4 °C. The supernatant (40 µL) was diluted with 60 µL of deionized water and then mixed for 2 min by vortexing. An aliquot (5 µL) was analyzed using LC-MS/MS [37], and CYP1A2, CYP2B6, and CYP3A4 enzyme activities were expressed as formation rates (pmol/million cells/min).
(§4) The percentage changes in enzymatic activities were calculated as (CYP activity with test compound treatment/CYP activity with vehicle control treatment) × 100. The IC50 (the concentration of the inhibitor needed for half-maximal inhibition) values were calculated using SigmaPlot ver. […] Ki (the inhibition constant) and the inhibition mode of UGT1A1, UGT1A3, and UGT1A4 activities were determined using Enzyme Kinetics ver. 1.1 (Systat Software, Inc.).

CYP activities = system: CYP activities; set-up: method as in PMID 22752008; conditions: three human hepatocytes, cited from earlier work
[1] = system: CYP1A2, CYP2B6, and CYP3A4 mRNA; set-up: method as in PMID 22752008; conditions: three human hepatocytes, cited from earlier work
UGT1A4 mRNA = UGT1A4 mRNA level in human hepatocytes after 48 h treatment (RT-PCR); conditions: 50 μM omeprazole, 48 h, range over three human hepatocytes
CYP1A2 = experiment: CYP1A2-catalyzed phenacetin O-deethylase activity in human hepatocytes after 48 h treatment; conditions: 48 h; for Enzyme Activities: CYP1A2-catalyzed phenacetin O-deethylase activity: Omeprazole 50 μM
Description: as §2, §3, §4

CYP1A2 mRNA = CYP1A2 mRNA level in human hepatocytes after 48 h treatment (RT-PCR); format: cell-based; conditions: 48 h, 50 µM
Description: as §1

UGT1A1 mRNA = UGT1A1 mRNA level in human hepatocytes after 48 h treatment (RT-PCR); conditions: 48 h
CYP2C8 mRNA = conditions: human, hepatocytes, 48 h, 10 μM
CYP2C19 mRNA = conditions: human, hepatocytes, 48 h, 10 μM
[2] = system: HER2-positive metastatic breast cancer; conditions: five randomized clinical trials, 3,720 patients; cited from earlier work

Clc1ccc(-c2nc3sccn3c2C=NOCc2ccc(Cl)c(Cl)c2)cc1 [CITCO, 6-(4-chlorophenyl)imidazo[2,1-b](1,3)thiazole-5-carbaldehyde-O-(3,4-dichlorobenzyl)oxime]
Increase of CYP2B6 mRNA levels (CYP2B6 mRNA): 5.6–8.7 fold
Increase of CYP2B6-mediated bupropion hydroxylase activity (CYP2B6): 3.8–15.7 fold

CC[C@H](C)[C@@H]([C@@H](CC(=O)N1CCC[C@H]1[C@H](OC)[C@@H](C)C(=O)N[C@H](C)[C@@H](O)c1ccccc1)OC)N(C)C(=O)[C@@H](NC(=O)[C@@H](NC)C(C)C)C(C)C [MMAE, monomethyl auristatin E] (H-[NMeV]V[Dil][Dolaproine]-X1)
Decrease of CYP activities (CYP activities; 100 nM MMAE): 40–71%
Decrease of CYP activities (CYP activities; 1000 nM MMAE): 45–81%
Suppression of CYP1A2, CYP2B6, and CYP3A4 mRNA expression ([1]; 100 nM MMAE): 61–90%
Suppression of CYP1A2, CYP2B6, and CYP3A4 mRNA expression ([1]; 1000 nM MMAE): 95–97%

COc1ccc2[nH]c([S+]([O-])Cc3ncc(C)c(OC)c3C)nc2c1 (centres unmarked) [Omeprazole, omeprazole]
Increase of UGT1A4 mRNA levels (UGT1A4 mRNA): 3.3–4.1 fold
Increase of CYP1A2-mediated phenacetin O-deethylase activity (CYP1A2; 50 µM omeprazole, vs vehicle, range over three human hepatocytes): 11.7–61.8 fold
Enzyme Activities: CYP1A2-catalyzed phenacetin O-deethylase activity (CYP1A2; Lot 319): 18.5 ± 3.3 ^a pmol/10^6 Cells/min
Enzyme Activities: CYP1A2-catalyzed phenacetin O-deethylase activity (CYP1A2; Lot 321): 89.45 ± 4.52 ^a pmol/10^6 Cells/min
Enzyme Activities: CYP1A2-catalyzed phenacetin O-deethylase activity (CYP1A2; Lot 361): 81.0 ± 0.53 ^a pmol/10^6 Cells/min
Increase of CYP1A2 mRNA levels (CYP1A2 mRNA): 58.7–299.3 fold
Increase of UGT1A1 mRNA levels (UGT1A1 mRNA; 50 μM omeprazole, range over three human hepatocytes): 3.9–7.0 fold
UGT1A1 mRNA (Fold Change) (UGT1A1 mRNA; Omeprazole 50 μM, Lot 319): 6.97 ± 0.94 Fold Change

CO[C@H]1/C=C/O[C@@]2(C)Oc3c(C)c(O)c4c(O)c(c(/C=N/N5CCN(C)CC5)c(O)c4c3C2=O)NC(=O)/C(C)=C\C=C\[C@H](C)[C@H](O)[C@@H](C)[C@@H](O)[C@@H](C)[C@H](OC(C)=O)[C@@H]1C [Rifampin, rifampin]
Increase of CYP2C8 mRNA levels (CYP2C8 mRNA): 3.7–4.8 fold
Increase of CYP2C19 mRNA levels (CYP2C19 mRNA): 2.0–2.2 fold

trastuzumab emtansine [T-DM1]
Progression-free survival and overall survival compared to other anti-HER2 therapies [2]: significantly prolonged
